Data: patent US6921541B2, “Formulations and methods for providing prolonged local anesthesia” (Euro-Celtique S.A., priority 1995, dated 2005)
Where two headings read alike, the source gives them in different places.

Tests used:
[1] = immediate release vasoconstrictor; at best; cited from earlier work

Experimental for rat sciatic nerve: The duration of local anesthesia induced by the bupivacaine-loaded microspheres, prepared from PLGA 65:35, with and without the co-administration of an augmenting agent, is tested in a rat sciatic nerve model for localized local anesthesia. […] The latency test determines the time, in seconds, before a rat withdraws its hindpaw from a hotplate set to a safe but uncomfortable temperature (56° C.).
Maximum sciatic nerve sensory blockade is defined as having a latency of about 12 seconds or higher.
In this example, a large number of pharmaceutical agents were tested for activity in augmenting the duration of local anesthetic activity. Bupivacaine-containing microspheres at about 75% loading, by weight, were injected perineurally into rat sciatic nerve at a dose of 150mg/kg (weight microspheres/weight rat) to dose of approximately 50 mg/nerve. For the injections, needle placement adjacent to the target nerve was optimized by intermittent electrical e stimulation of the target nerve (via the injection needle) with low amplitude current to produce limb flexion. For the injections, the microspheres were suspended in a carrier vehicle suitable for injection. While any pharmaceutically acceptable carrier vehicle is acceptable, for these experiments the carrier vehicle was 1% sodium carboxymethylcellulose and 1% Tween 80 in water.
Compounds to be tested were co-injected with bupivacaine containing microspheres (i.e., mixed as additives into the carrier vehicle) in a range of concentrations. Results are expressed as percent increase in duration relative to non-augmented durations that were obtained in the same animal model.

Row | Structure (SMILES) | Duration Anesthesia As Percent of Control (rat sciatic nerve; 0.1 % additive conc., Placebo (no bupivacaine)) | Duration Anesthesia As Percent of Control (toxicity noted) (rat sciatic nerve; 10 % additive conc. in carrier vehicle, LAB 150 mg/kg) | Duration Anesthesia As Percent of Control (rat sciatic nerve; 10 % additive conc., no LAB) | prolongation of local anesthetic activity [1]
1 | COc1cc2c(c(OC)c1OC)-c1ccc(OC)c(=O)cc1[C@@H](NC(C)=O)CC2 [Colchicine] | 0% of Control | toxic | 0% of Control | 
2 | CNC[C@H](O)c1ccc(O)c(O)c1 [epinephrine] |  |  |  | about 1 hour
